Structures can show the parent of a compound that is named as a salt.
How the values were obtained:
Bovine LOX = Bovine LOX (Bos taurus (Bovine), UniProt P33072); test: LOX inhibition, peroxidase-coupled Amplex Red amine oxidase assay; format: biochemical; conditions: 30 min preincubation at 37° C., putrescine substrate
Outline: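 Bovine LOX in 1.2 M urea, 50 mM sodium borate pH 8.2 with 1 μM mofegiline and 0.5 mM pargyline; putrescine at twice KM (e.g. 20 mM for LOX) with Amplex Red/HRP. Fluorescence (ex 565/em 590 nm) read kinetically over 30 min at 37–45 °C; IC50 from slopes.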

Recombinant human MAO-B = Recombinant human MAO-B (Homo sapiens (Human), UniProt P27338); test: Inhibition of human recombinant MAO-B; format: biochemical; conditions: benzylamine 100 μM
Outline: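 Recombinant human MAO-B used as enzyme source (0.06 mg/mL, stated concentration). Run as for the human SSAO/VAP-1 assay, except benzylamine substrate at 100 μM.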

Human LOXL2 = Human LOXL2 (Homo sapiens (Human), UniProt Q9Y4K0); test: LOXL2 inhibition, peroxidase-coupled Amplex Red amine oxidase assay; format: biochemical; conditions: 30 min preincubation at 37° C., putrescine substrate
Outline: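 Enzyme in 1.2 M urea, 50 mM sodium borate pH 8.2 with 1 μM mofegiline and 0.5 mM pargyline, preincubated 30 min at 37° C with compound (11-point CRC). Putrescine at twice KM (10 mM for LOXL2) with Amplex Red/HRP; fluorescence (ex 565, em 590) read kinetically 30 min; IC50 from slopes.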

[1] = biological target: human recombinant SSAO/VAP-1 (Homo sapiens (Human), UniProt Q16853); test: Inhibition of human recombinant SSAO/VAP-1 amine oxidase activity; format: biochemical; conditions: 30 min preincubation at 37° C., 600 μM benzylamine
Outline: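 Purified SSAO/VAP-1 (residues 34-763, expressed in CHO Lec 8 cells; 0.25 μg/mL) preincubated 30 min at 37° C with compound in 0.1 M sodium phosphate pH 7.4. Reaction mix of 600 μM benzylamine, 120 μM Amplex Red and 1.5 U/mL HRP added; fluorescence (ex 565/em 590 nm) read every 2.5 min for 30 min; IC50 from kinetic slopes over 4-11 point curves.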

[2] = system: primary fibroblasts from confirmed cases of IPF; test: Collagen cross-link formation in in vitro fibroblastic foci model of IPF; format: cell-based, human; conditions: TGF-β1 stimulated foci, six weeks culture, FIGS. 7a and 7b
Excerpt: The lung tissue of patients with idiopathic pulmonary fibrosis (IPF) is characterised by dense collections of myofibroblasts and extracellular matrix (ECM) termed ‘fibroblastic foci’. Using a novel in vitro model of fibroblastic foci (Jones et al., AJRCCM 191; 2015:A4912) the formation of lysyl oxidase (LOX) mediated collagen cross-links and the effects of the nonselective LOX inhibitor β-aminopropionitrile (BAPN) as well lysyl oxidase like-2 (LOXL2)-selective inhibitors were investigated.
Cultures of primary fibroblasts were grown out from clinical diagnostic biopsies of fibrotic lung and stored in liquid nitrogen. […]
To quantify collagen cross-links (Robins Biochem Soc Trans 2007; 35(5): 849-852; Saito et al Anal. Biochem. 1997; 253: 26-32; Sims, Avery & Bailey Methods in Molecular Biology 2000; vol 139: 11-26), cultures were treated with potassium borohydride to stabilise the reducible immature cross-links, and hydrolysed in 6N HCl at 100° C. for 16 hr. Total collagen content was assessed by hydroxyproline assay. Immature cross-links were assessed by LC/MS/MS and mature pyridinoline cross-links by ELISA. Cross-link data is expressed as moles of cross-link per mole collagen.

human recombinant SSAO/VAP-1, sequence (Q16853 34-763): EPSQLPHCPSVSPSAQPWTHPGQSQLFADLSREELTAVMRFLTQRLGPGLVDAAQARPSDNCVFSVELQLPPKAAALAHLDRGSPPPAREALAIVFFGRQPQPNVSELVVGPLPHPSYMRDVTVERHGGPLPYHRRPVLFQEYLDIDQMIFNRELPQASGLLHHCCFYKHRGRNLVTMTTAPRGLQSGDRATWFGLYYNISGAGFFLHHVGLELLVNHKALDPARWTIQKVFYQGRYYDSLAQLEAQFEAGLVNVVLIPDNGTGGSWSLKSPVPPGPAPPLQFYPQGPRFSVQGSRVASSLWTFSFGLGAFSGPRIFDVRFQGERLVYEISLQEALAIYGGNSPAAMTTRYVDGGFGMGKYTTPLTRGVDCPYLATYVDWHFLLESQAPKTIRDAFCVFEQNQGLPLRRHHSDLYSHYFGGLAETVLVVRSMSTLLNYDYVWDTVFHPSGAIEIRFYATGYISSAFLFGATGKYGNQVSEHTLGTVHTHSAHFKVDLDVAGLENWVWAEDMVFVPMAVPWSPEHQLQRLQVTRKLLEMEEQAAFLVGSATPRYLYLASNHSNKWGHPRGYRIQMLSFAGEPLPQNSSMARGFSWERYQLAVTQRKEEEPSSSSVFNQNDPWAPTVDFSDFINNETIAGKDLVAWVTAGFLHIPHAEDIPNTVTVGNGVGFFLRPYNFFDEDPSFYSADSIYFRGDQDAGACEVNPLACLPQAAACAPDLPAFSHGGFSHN
Human LOXL2, sequence (Q9Y4K0 26-774): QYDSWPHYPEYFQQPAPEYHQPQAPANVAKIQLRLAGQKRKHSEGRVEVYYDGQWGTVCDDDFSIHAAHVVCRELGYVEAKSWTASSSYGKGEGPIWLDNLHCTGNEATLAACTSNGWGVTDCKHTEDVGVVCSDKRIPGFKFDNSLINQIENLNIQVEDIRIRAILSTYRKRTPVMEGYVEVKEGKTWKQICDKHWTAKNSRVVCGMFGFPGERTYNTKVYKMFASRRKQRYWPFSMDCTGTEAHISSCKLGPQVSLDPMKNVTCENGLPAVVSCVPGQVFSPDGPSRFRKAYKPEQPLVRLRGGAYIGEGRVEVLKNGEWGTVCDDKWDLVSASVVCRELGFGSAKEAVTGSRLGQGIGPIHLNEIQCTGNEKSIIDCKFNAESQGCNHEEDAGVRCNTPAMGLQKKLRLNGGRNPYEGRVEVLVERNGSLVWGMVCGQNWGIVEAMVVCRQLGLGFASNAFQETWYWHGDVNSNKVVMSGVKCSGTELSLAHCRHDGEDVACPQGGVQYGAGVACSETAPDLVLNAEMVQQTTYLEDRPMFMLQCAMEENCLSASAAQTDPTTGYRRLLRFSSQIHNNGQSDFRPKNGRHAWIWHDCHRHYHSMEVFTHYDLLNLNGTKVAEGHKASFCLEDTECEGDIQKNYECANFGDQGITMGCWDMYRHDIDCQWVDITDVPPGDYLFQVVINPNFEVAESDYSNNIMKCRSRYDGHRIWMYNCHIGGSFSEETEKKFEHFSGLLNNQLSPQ
Bovine LOX, sequence (P33072 170-418): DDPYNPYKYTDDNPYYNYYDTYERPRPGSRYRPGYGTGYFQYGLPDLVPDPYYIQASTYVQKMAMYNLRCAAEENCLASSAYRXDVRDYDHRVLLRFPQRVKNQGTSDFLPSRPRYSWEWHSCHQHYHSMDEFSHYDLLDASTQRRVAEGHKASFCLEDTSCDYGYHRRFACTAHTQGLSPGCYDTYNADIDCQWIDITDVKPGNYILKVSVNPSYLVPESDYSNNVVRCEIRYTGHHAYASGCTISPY
Recombinant human MAO-B, sequence (P27338 whole entry): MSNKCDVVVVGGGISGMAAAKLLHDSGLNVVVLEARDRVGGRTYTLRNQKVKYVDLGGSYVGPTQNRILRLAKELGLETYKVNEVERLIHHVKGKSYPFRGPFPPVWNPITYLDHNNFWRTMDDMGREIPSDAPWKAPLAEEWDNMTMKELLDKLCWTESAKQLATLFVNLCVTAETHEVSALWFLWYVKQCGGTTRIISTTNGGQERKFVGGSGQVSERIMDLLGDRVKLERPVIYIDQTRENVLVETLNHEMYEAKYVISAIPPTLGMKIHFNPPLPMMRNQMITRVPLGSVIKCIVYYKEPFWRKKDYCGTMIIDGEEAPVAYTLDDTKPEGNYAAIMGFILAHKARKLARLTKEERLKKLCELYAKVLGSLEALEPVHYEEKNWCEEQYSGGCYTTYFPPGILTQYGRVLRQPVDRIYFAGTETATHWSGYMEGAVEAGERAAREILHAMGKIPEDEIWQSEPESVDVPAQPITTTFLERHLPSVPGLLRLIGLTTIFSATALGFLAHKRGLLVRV

SMILES | IC50 (Bovine LOX) | IC50 (Recombinant human MAO-B) | IC50 (Human LOXL2) | IC50 [1] | collagen cross-link formation (immature and mature cross-links) [2]
N#CCCN [BAPN, β-aminopropionitrile, reference compound] | > 1000 nM | > 3000 nM | < 1000 nM | > 3000 nM | reduced cross-link formation in a concentration dependent manner
Cc1c(-c2cccc(S(=O)(=O)N(C)C)c2)c2nc(C(C)(F)F)ccc2n1C/C(F)=C/CN [Compound 111, (Z)-3-(1-(4-amino-2-fluorobut-2-en-1-yl)-5-(1,1-difluoroethyl)-2-methyl-1H-pyrrolo[3,2-b]pyridin-3-yl)-N,N-dimethylbenzenesulfonamide Dihydrochloride] | > 300 nM | > 3000 nM | < 300 nM | > 3000 nM | –

From patent US10717733B2, “Haloallylamine indole and azaindole derivative inhibitors of lysyl oxidases and uses thereof” (PHARMAXIS LTD., priority 2016, dated 2020)
